Values of other authors in PMC6631257.

Tested on: CYP2D6

Row | CYP2D6 inhibitor strength | Structure (SMILES)
1 | strong | CNCCC(Oc1ccc(C(F)(F)F)cc1)c1ccccc1 (stereo not drawn) [fluoxetine]
2 | weak inhibitor | COc1ccc([C@@H]2Sc3ccccc3N(CCN(C)C)C(=O)[C@@H]2OC(C)=O)cc1 [diltiazem]

Row | Structure (SMILES) | CYP2D6 inhibitor strength
3 | Fc1ccc([C@@H]2CCNC[C@H]2COc2ccc3c(c2)OCO3)cc1 [paroxetine] | strong
